According to patent EP4559919A1, “TRICYCLIC-CONTAINING MACROCYCLIC COMPOUND AND USE THEREOF” (Medshine Discovery Inc., priority 2022, dated 2024):

Legend:
ALK(G1202R/L1196M) = target: T1, ALK(G1202R/L1196M) (Homo sapiens, UniProt Q9UM73, G1202R/L1196M); assay: In vitro kinase inhibitory activity assay, Experimental method 2 (ADP-Glo); format: biochemical; details: Experimental method 2; ATP 5.0 µM, substrate IGF1; read-out: Kinase half maximal inhibitory concentration IC50 ALK^G1202R/L1196M
T1 construct: purchased Carna

TRKB = target: T2, TRKB (Homo sapiens, UniProt Q16620); assay: as above; format: biochemical; details: Experimental method 2; ATP 5.0 µM, substrate PolyE4Y1; read-out: Kinase half maximal inhibitory concentration IC50 TRKB
T2 construct: purchased Carna

CYP2C9 = target: T3, CYP2C9 (Homo sapiens, UniProt P11712); assay: Cytochrome P450 isozyme inhibitory activity test (human liver microsomes); format: in vitro ADME; details: human liver microsomes 0.1 mg/mL; probe substrate Diclofenac
T3 construct: Mixed human liver microsomes (HLM) purchased from Corning Inc; tissue Corning Inc; host or cells: pooled human liver microsomes
Description: To test the inhibitory activity of the compounds of the present disclosure on different subtypes of human liver microsomal cytochrome P450 isozymes.
Mixed human liver microsomes (HLM) purchased from Corning Inc. (Steuben, New York, USA); Diclofenac as the probe substrate (10 µM); Sulfaphenazole as the positive control inhibitor; 4'-Hydroxydiclofenac as the metabolite
Preparation of test system working solution: Human liver microsomes (HLM): HLM stock solution at 20.0 mg/mL, working solution at 0.2 mg/mL, final concentration at 0.1 mg/mL; Potassium phosphate buffer: 100 mM; Cofactor working solution: Magnesium chloride, NADP (nicotinamide adenine dinucleotide phosphate), G6P (glucose-6-phosphate), G6PDH (glucose-6-phosphate dehydrogenase), and phosphate buffer or magnesium chloride, NADPH (reduced nicotinamide adenine dinucleotide phosphate) powder, and potassium phosphate buffer; prepared into cofactor working solution at appropriate ratios;
Stop solution: Isotope-labeled 4'-hydroxydiclofenac-d4 stock solution prepared in methanol, then prepared into stop solution using acetonitrile.
In the substrate-free control sample wells of the reaction plate, 100 µL of a mixture of human liver microsome and potassium phosphate buffer was added. At the zero-time point sample wells, 98 µL of a mixture of the human liver microsome and potassium phosphate buffer was added. In the no-inhibitor control (NIC), test compound, and positive control inhibitor sample wells of the reaction plate, 100 µL of a mixture of the human liver microsome and substrate was added. From the dilution plate, 2 µL of blank solvent, test compound working solution (three parallels), and positive control inhibitor working solution (two parallels) were added to the reaction plate. The reaction plate was preheated at 37.0°C for 10 minutes. […] The concentration of specific metabolites in the samples was detected using the liquid chromatography-tandem mass spectrometry (LC-MS/MS) method. […] The IC50 values were calculated using a three-parameter or four-parameter inverse log equation.

T1 sequence (Q9UM73 19-1620 L1196M/G1202R): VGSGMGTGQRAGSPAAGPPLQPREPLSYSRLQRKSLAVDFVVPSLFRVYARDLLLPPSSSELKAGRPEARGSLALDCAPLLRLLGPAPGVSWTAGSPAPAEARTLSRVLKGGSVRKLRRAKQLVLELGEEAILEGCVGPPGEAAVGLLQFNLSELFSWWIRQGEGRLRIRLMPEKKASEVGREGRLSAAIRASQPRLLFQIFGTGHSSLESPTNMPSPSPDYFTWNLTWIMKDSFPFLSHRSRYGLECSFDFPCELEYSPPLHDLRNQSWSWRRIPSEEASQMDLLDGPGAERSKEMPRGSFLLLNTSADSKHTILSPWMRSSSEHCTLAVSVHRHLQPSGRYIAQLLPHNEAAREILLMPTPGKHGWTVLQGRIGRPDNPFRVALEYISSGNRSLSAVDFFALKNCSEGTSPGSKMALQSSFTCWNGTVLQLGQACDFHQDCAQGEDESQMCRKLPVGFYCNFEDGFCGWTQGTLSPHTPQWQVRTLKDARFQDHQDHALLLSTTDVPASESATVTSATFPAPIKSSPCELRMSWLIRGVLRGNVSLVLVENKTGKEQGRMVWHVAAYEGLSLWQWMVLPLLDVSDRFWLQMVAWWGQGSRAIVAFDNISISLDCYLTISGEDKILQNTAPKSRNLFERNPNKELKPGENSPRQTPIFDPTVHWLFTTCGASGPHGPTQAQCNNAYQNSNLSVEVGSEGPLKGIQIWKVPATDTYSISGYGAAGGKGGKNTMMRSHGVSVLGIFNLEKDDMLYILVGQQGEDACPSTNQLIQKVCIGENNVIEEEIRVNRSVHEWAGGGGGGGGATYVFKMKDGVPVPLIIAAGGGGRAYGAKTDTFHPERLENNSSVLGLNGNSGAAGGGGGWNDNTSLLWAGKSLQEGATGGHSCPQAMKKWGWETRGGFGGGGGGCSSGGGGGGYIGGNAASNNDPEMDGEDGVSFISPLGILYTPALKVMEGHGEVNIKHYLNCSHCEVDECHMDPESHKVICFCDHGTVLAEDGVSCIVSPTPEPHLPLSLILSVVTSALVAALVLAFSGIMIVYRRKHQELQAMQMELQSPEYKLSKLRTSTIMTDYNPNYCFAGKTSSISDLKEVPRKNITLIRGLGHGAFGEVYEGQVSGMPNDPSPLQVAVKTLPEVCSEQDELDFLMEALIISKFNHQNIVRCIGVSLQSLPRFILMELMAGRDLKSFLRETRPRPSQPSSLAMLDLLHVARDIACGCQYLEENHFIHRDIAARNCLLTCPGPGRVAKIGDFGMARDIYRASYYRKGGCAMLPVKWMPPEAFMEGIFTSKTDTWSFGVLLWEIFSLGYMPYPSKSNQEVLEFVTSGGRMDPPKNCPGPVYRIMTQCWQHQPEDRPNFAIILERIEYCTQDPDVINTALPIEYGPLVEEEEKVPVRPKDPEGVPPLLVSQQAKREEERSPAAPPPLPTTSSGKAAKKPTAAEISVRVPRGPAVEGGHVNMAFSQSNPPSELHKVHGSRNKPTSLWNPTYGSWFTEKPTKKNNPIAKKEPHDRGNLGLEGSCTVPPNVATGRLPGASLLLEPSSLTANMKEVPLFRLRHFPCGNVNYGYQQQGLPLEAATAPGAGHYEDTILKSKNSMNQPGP
T3 sequence (P11712 whole entry): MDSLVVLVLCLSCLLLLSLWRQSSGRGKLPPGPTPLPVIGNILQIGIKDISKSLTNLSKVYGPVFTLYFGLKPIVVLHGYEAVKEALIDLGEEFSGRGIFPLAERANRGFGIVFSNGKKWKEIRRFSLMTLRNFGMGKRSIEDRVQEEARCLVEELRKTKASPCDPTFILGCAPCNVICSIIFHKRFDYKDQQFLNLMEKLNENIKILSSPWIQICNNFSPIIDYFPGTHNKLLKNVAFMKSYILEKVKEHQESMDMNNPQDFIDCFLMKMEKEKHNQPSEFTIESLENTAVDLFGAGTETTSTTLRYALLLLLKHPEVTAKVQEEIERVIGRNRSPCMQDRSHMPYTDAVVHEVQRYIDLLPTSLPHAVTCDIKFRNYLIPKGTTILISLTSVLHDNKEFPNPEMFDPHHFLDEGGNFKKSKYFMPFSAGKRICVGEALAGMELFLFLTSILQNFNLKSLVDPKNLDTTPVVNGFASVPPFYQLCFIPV
T2 sequence (Q16620 32-822): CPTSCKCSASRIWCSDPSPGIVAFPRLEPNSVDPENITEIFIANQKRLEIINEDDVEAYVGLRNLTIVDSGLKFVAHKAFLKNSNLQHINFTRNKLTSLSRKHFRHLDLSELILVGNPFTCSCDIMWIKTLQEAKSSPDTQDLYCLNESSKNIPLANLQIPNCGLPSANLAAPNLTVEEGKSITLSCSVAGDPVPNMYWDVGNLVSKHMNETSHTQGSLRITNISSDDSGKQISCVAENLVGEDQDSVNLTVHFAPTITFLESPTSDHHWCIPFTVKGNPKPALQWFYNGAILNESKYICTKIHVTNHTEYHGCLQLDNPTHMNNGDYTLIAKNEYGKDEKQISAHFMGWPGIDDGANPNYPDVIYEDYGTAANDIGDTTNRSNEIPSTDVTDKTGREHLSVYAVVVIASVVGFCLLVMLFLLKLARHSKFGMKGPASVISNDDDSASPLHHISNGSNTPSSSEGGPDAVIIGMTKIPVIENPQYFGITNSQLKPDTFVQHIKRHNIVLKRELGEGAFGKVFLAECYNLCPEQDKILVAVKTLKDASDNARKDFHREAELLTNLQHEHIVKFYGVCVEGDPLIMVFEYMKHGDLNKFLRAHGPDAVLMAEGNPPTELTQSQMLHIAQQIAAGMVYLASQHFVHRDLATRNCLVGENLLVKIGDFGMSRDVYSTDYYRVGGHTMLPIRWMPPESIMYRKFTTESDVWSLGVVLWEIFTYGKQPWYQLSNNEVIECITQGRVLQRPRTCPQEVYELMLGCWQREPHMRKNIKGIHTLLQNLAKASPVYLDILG

Cc1nn2cc3c4nc2c1C(=O)NC1(CC1)COc1ccc(F)cc1CN4[C@H](C(F)F)CO3 [Compound 016]
IC50 (ALK(G1202R/L1196M)): 0.9 nM | IC50 (TRKB): 0.3 nM | IC50 (CYP2C9): 3120 nM
